Assay results reported in ChEMBL document CHEMBL1201862, “PubChem BioAssay data set” (2004).
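Grown in 96-well plates, cells were treated for 48 hours with each compound at five concentrations. Insufficient inhibition: endpoint recorded as highest concentration tested. GI50 is the concentration that inhibits growth by half.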 Calls of active or inactive are those of the source. No stated cut-off is given here; in the data, active = GI50 up to about 1.1 µM and inactive = higher.

What was measured:
Assay in all cases: NCI anticancer screen, dose series, 48 h
COLO 205 = test system: COLO 205
TK-10 = test system: TK-10
HT-29 = test system: HT-29
SF-268 = test system: SF-268
HOP-62 = test system: HOP-62
MDA-N = test system: MDA-N
MOLT-4 = test system: MOLT-4
786-0 = test system: 786-0
PC-3 = test system: PC-3
SK-OV-3 = test system: SK-OV-3
DU-145 = test system: DU-145
NCI-H23 = test system: NCI-H23
LOX IMVI = test system: LOX IMVI
M19-MEL = test system: M19-MEL
UACC-257 = test system: UACC-257
SNB-75 = test system: SNB-75
K562 = test system: K562
SF-295 = test system: SF-295
ACHN = test system: ACHN
HL-60 = test system: HL-60
BT-549 = test system: BT-549
IGROV-1 = test system: IGROV-1
EKVX = test system: EKVX
HCT-15 = test system: HCT-15
OVCAR-5 = test system: OVCAR-5
SN12C = test system: SN12C
HCC 2998 = test system: HCC 2998
UO-31 = test system: UO-31
HCT-116 = test system: HCT-116
T47D = test system: T47D
UACC-62 = test system: UACC-62
RXF 393 = test system: RXF 393
OVCAR-4 = test system: OVCAR-4
Malme-3M = test system: Malme-3M
MCF7 = test system: MCF7
SNB-19 = test system: SNB-19
CCRF-CEM = test system: CCRF-CEM
HOP-18 = test system: HOP-18
MDA-MB-231 = test system: MDA-MB-231
U-251 = test system: U-251
SF-539 = test system: SF-539
KM12 = test system: KM12
SW-620 = test system: SW-620
OVCAR-3 = test system: OVCAR-3
NCI-H226 = test system: NCI-H226
NCI-H522 = test system: NCI-H522
DMS-273 = test system: DMS-273
NCI/ADR-RES = test system: NCI/ADR-RES
SK-MEL-2 = test system: SK-MEL-2
A549 = test system: A549
XF498 = test system: XF498
A498 = test system: A498
M14 = test system: M14
SK-MEL-28 = test system: SK-MEL-28
OVCAR-8 = test system: OVCAR-8
Hs-578T = test system: Hs-578T
NCI-H460 = test system: NCI-H460
SR = test system: SR
SNB-78 = test system: SNB-78
DMS-114 = test system: DMS-114
HOP-92 = test system: HOP-92
SK-MEL-5 = test system: SK-MEL-5
CAKI-1 = test system: CAKI-1
KM-20L2 = test system: KM-20L2
RPMI-8226 = test system: RPMI-8226
LXFL 529 = test system: LXFL 529
DLD-1 = test system: DLD-1

Measured: GI50

Cc1cc(N(CCC#N)CCC#N)ccc1/C=C1N=C(/C=C\c2ccccc2)N(c2ccc(Cl)cc2)C\1=O
inactive: TK-10 > 53.3 µM | HT-29 2.11 µM | SF-268 > 22 µM | HOP-62 5.21 µM | MDA-N > 100 µM | MOLT-4 25 µM | 786-0 54.8 µM | SK-OV-3 > 87.1 µM | DU-145 > 100 µM | NCI-H23 36.6 µM | M19-MEL 1.57 µM | UACC-257 > 54.6 µM | SNB-75 > 100 µM | SF-295 4.57 µM | ACHN 8.32 µM | HL-60 6.05 µM | BT-549 1.49 µM | IGROV-1 47.3 µM | EKVX > 100 µM | OVCAR-5 22.2 µM | SN12C > 45 µM | HCC 2998 1.81 µM | UO-31 7.36 µM | HCT-116 6.76 µM | T47D > 100 µM | RXF 393 > 100 µM | OVCAR-4 > 39.4 µM | Malme-3M 17.7 µM | MCF7 29.2 µM | SNB-19 > 100 µM | CCRF-CEM 3.4 µM | HOP-18 > 100 µM | MDA-MB-231 > 100 µM | U-251 > 28.6 µM | SF-539 6.71 µM | KM12 4.52 µM | SW-620 11.6 µM | OVCAR-3 40.5 µM | NCI-H226 > 100 µM | NCI-H522 24.7 µM | NCI/ADR-RES > 100 µM | SK-MEL-2 > 54.8 µM | A549 > 39.9 µM | XF498 > 100 µM | A498 > 100 µM | M14 1.29 µM | SK-MEL-28 5.46 µM | OVCAR-8 > 40.8 µM | Hs-578T > 100 µM | NCI-H460 10.8 µM | SR > 100 µM | SNB-78 > 100 µM | DMS-114 2.13 µM | HOP-92 > 95.7 µM | CAKI-1 > 24.3 µM
0.718 µM: HCT-15
active: COLO 205 0.745 µM | PC-3 0.536 µM | LOX IMVI 1.01 µM | K562 0.607 µM | UACC-62 0.746 µM | DMS-273 0.288 µM | SK-MEL-5 0.43 µM

COc1ccc2c(c1)c[n+](C)c1c3cc(OC)c(OC)cc3ccc21
24.9 µM: HCT-15
inactive: COLO 205 1.41 µM | SF-268 2.75 µM | KM-20L2 4.84 µM | RPMI-8226 1.75 µM | MDA-N 2.5 µM | LXFL 529 1.96 µM | SK-OV-3 9.4 µM | LOX IMVI 1.95 µM | M19-MEL 6.44 µM | K562 2.04 µM | SN12C 2.91 µM | UACC-62 11.3 µM | SNB-19 4.78 µM | HOP-18 12.4 µM | MDA-MB-231 1.59 µM | U-251 1.94 µM | SW-620 1.55 µM | OVCAR-3 4.16 µM | NCI-H522 1.67 µM | DMS-273 1.57 µM | DLD-1 4.86 µM | A549 2.74 µM | XF498 4.23 µM | OVCAR-8 1.73 µM | Hs-578T 2.23 µM | SR 1.38 µM | SNB-78 6.95 µM | DMS-114 1.98 µM | CAKI-1 17.6 µM

COC1(O)c2cccc(Cl)c2C(=O)N1C1(C(N)=O)CCCCC1 (configuration not stated)
inactive: COLO 205 > 100 µM | HT-29 > 43.7 µM | SF-268 > 100 µM | HOP-62 > 100 µM | KM-20L2 > 100 µM | RPMI-8226 > 100 µM | MOLT-4 > 100 µM | SK-OV-3 > 100 µM | NCI-H23 > 37.5 µM | LOX IMVI > 100 µM | M19-MEL > 100 µM | UACC-257 > 100 µM | SNB-75 > 100 µM | K562 > 100 µM | SF-295 > 100 µM | HL-60 > 100 µM | IGROV-1 > 100 µM | EKVX > 100 µM | OVCAR-5 > 100 µM | SN12C > 100 µM | HCC 2998 > 100 µM | UO-31 > 100 µM | HCT-116 > 100 µM | UACC-62 > 100 µM | RXF 393 > 100 µM | OVCAR-4 > 100 µM | Malme-3M > 100 µM | MCF7 > 100 µM | SNB-19 > 100 µM | CCRF-CEM > 100 µM | HOP-18 > 100 µM | U-251 > 100 µM | SF-539 > 100 µM | KM12 > 100 µM | SW-620 > 100 µM | OVCAR-3 > 100 µM | NCI-H226 > 100 µM | NCI-H522 > 100 µM | DMS-273 > 100 µM | NCI/ADR-RES > 100 µM | SK-MEL-2 > 100 µM | DLD-1 > 100 µM | A549 > 100 µM | XF498 > 100 µM | A498 > 100 µM | SK-MEL-28 > 100 µM | OVCAR-8 > 100 µM | NCI-H460 > 100 µM | SNB-78 > 100 µM | DMS-114 > 100 µM | HOP-92 24.4 µM | SK-MEL-5 > 100 µM | CAKI-1 > 100 µM
> 100 µM: HCT-15
